Reference: patent US20190211099A1, “METHODS AND COMPOSITIONS FOR TREATING CANCER WITH SIGLEC-9 ACTIVITY MODULATORS” (KING'S COLLEGE LONDON, priority 2016, published 2019)

Assays:
Siglec-9 [1] = target: T1, Siglec-9 (Homo sapiens, UniProt Q9Y336); experiment: Binding of biotinylated MUC1 glycoforms to plate-bound recombinant Siglec fusion proteins; details: 2 μg/ml biotinylated MUC1 glycoform, 4 hours; compared with Siglecs 3, 7 and 10
Method: Binding was enhanced when cells were pre-treated with 0.04 U/ml neuraminidase for 30 minutes at 37° C. in PBS (FIG. 3C), which removes competing cis-binding sialic acid sites from the surface of the cells. As this pattern is characteristic of binding to Siglecs (Macauley et al. (2014) NAT. REV. IMMUNOL. 14: 653-666), MUC1-ST binding to Siglecs was tested as follows: mouse anti human IgG was bound to plastic O/N and the plate was blocked using 1% BSA in PBS. Recombinant human Siglec (3, 5, 7, 8, 9 and 10) fusion proteins were added at 2 μg/mL for 2 hours. After incubation with 2 μg/ml biotinylated MUC1 glycoforms for 4 hours, O.D. was measured after the addition of streptavidin-HRP and substrate. […] Although Siglecs 3, 7 and 9 are expressed by monocytes and macrophages (FIG. 3D), a blocking antibody to Siglec-9 inhibited 80-95% of the MUC1-ST binding to these cells (FIGS. 2G-2I, 3E, and 5) indicating this is the dominant binding Siglec. […] Importantly, Siglec-9 bound to the breast cancer cell line T47D that expresses MUC1 carrying sialylated Core-1 glycans (FIG. 2J). Finally, isolated monocytes were bound to 10 μg/mL biotinylated MUC1-ST or 10 μg/mL biotinylated polyacrylamide carrying the ST glycan (PAA-ST; Glycotech).
Target sequence in this assay (Q9Y336 with tags, fused parts or gaps limits assumed): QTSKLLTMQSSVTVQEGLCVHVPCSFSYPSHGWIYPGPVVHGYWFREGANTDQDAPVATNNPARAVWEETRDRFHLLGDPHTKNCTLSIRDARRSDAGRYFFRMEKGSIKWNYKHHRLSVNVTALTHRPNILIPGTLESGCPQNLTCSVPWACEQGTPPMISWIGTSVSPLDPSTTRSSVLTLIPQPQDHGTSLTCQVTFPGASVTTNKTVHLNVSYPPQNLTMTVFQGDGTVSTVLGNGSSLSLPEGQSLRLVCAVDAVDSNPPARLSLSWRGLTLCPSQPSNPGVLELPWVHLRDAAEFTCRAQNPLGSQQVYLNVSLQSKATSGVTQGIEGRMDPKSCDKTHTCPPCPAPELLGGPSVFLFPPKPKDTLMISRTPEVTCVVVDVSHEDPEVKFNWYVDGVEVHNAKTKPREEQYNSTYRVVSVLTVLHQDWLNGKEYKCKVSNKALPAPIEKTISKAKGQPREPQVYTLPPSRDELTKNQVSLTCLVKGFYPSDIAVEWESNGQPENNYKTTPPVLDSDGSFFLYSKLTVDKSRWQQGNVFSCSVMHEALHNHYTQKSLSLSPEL

THP-1 cells = experiment: PAI-1, M-CSF and kynurenine in supernatants of differentiated THP-1 cells; format: cell-based, human; details: 100 μg/mL MUC1-ST
Method: THP-1 cells were cultured at a concentration of 1×10^6/mL in AIM V medium. Cells were differentiated using […] phorbol 12-myristate 13-acetate (PMA) on day 0 and 100 ng/mL LPS on day 3 in the presence or absence of 100 μg/mL MUC1-ST or MUC1-T. Cell supernatants were harvested on day 5 and PAI-I concentration measured by ELISA.
Given that IDO catalyzes the rate-limiting step in the metabolism of tryptophan, the tryptophan metabolite kynurenine was detected as follows. 604, supernatant was mixed with 304, 30% trichloroacetic acid (TCA) and incubated for 30 minutes at 50° C. The supernatant was spun at 3000×g and 50 μL was harvested and mixed with 50 μL freshly prepared Ehrlich Reagent (2% p-dimethylaminobenzaldehyde in glacial acetic acid). After 10 minutes optical density (O.D.) was measured at 492 nm, and concentrations were calculated against a kynurenine standard curve. An increase in the tryptophan metabolite kynurenine was observed (FIG. 11D).
The intracellular effects of MUC1-ST binding to Siglec-9 were further explored in the monocytic cell line, THP-1. THP-1 cells were cultured for three days at a concentration of 1×10^6/mL in AIM V medium and differentiated using […] phorbol 12-myristate 13-acetate (PMA) in the presence or absence of 100 μg/mL MUC1-ST. […] THP-1 cells were further treated with DMSO or the MEK/ERK inhibitor PD98059 at 1004, and the concentration of PAI-1, M-CSF and kynurenine in cell supernatants were measured as described above. […] This increase in concentration was blocked by the MEK/ERK inhibitor PD98059 (FIG. 4I).

CD8+ T cells = experiment: Co-culture of MUC1-ST educated M-CSF macrophages with CD3/CD28 stimulated autologous T cells; format: cell-based, human; details: MUC1-ST educated M-CSF macrophages
Method: In addition, primary monocytes were induced to differentiate to macrophages in the presence of MUC1-ST and then co-cultured for 48 hours with CD3/CD28 stimulated autologous CD8+ or CD4+ T cells. T cell proliferation and CD69/CD25 cell surface expression were measured using flow cytometry.

Siglec-9 [2] = target: T1, Siglec-9; experiment: Phosphorylation of Siglec-9 (ELISA, phospho immunoreceptor array); format: cell-based; details: monocytes and macrophages; antibody cross-linked
Method: To determine the intracellular effects of MUC1-ST binding to Siglec-9, the ability of MUC1-ST to induce phosphorylation of the immunoreceptor tyrosine-based inhibitory motif (ITIM) of Siglec-9 thereby inducing intracellular inhibitory signals (Avril et al. (2004) J. IMMUNOL. 173: 6841-6849) was assessed. Without wishing to be bound by theory, it was hypothesized that this was likely occur as the repeated glycans found on MUC1 could be able to crosslink this lectin. To investigate the effects of MUC1-ST on Siglec-9 phosphorylation, monocytes or differentiated M-CSF macrophages were treated with MUC1-ST or cross-linked anti-Siglec-9 antibody at 4° C. for 4 hours or 30 minutes, respectively, and were then brought to 37° C. for 15 minutes, and lysed in the presence of pervanadate. Lysates were assessed for the phosphorylation of Siglec-9 using an ELISA or a 59 phospho immunoreceptor array (Bio-Techne) according to the manufacturer's instructions. For the ELISA, anti-human Siglec-9 was plated overnight (O/N) on plastic before being blocked with 1% BSA in PBS. Clarified supernatant was added and incubated for 2 hours. After incubation with 1 μg/mL biotinylated anti phospho-tyrosine, O.D. at 450 nm was measured after the addition of streptavidin-HRP and substrate.
Target sequence in this assay (Q9Y336 18-463): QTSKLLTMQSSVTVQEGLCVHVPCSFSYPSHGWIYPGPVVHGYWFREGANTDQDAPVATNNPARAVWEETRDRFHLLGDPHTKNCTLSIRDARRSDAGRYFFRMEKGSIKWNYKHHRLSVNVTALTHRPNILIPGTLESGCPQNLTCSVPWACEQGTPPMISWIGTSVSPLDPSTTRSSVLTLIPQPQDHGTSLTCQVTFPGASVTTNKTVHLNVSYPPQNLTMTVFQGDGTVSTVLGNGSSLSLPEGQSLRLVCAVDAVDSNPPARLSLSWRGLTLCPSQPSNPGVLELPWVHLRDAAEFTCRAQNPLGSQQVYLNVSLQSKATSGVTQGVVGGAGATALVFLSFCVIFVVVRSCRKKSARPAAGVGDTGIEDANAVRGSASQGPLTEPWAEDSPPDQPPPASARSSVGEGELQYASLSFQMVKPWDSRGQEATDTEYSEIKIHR

Substance: NeuAcα2,3Galβ1-3GalNAc linked via a Ser/Thr of MUC1 [MUC1-ST]
- binding to recombinant Siglec fusion protein (Siglec-9 [1]): greatest binding
- PAI-1 concentration in cell supernatants (THP-1 cells; THP-1, PMA, three days): increased
- kynurenine concentration in cell supernatants (THP-1 cells; THP-1, PMA, three days): increased
- PAI-I secretion (THP-1 cells; THP-1 differentiated with PMA and LPS, day 5): increased
- activation of CD8+ T cells (expression of CD25 and CD69) (CD8+ T cells): lower level of activation
- proliferation of CD8+ T cells (CD8+ T cells; 48 hours co-culture): significantly inhibited
- phosphorylation of Siglec-9 (Siglec-9 [2]): inhibited
